The results in this text go back to patent EP4644383A1 (Jiangsu Yahong Meditech Co., Ltd., priority 2022, dated 2024).

The target of one experiment is T1, FGFR3 (Homo sapiens, UniProt P22607).
T1 construct: FGFR3's cytoplasmic domain [436-806 (terminal) amino acids]; purchased Carna 08-135
The experiment in a line: FGFR3 kinase activity inhibition assay (LanthaScreen TR-FRET). The experiment is classed as biochemical. Particulars: for Selectivity (X) FGFR1/FGFR3: ratio of IC50 FGFR1/FGFR3, selectivity towards FGFR3; for Selectivity (X) FGFR2/FGFR3: ratio of IC50 FGFR2/FGFR3, selectivity towards FGFR3; for Selectivity (X) FGFR4/FGFR3: ratio of IC50 FGFR4/FGFR3, selectivity towards FGFR3. Summed up:
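Read-out is TR-FRET, with the 520 nm/495 nm emission ratio normalised to DMSO (max) and enzyme-free (min) controls. Enzyme was the FGFR3 cytoplasmic domain, residues 436-806. EDTA (10 mM) stopped the reaction, followed by 60 min at 22 °C before reading.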

The next experiment deals with T2, FGFR4 (Homo sapiens, UniProt P22455).
T2 construct: FGFR4's cytoplasmic domain [460-802 (terminal) amino acids]; purchased Carna 08-136
Nature of the experiment: FGFR4 kinase activity inhibition assay (LanthaScreen TR-FRET). The experiment is classed as biochemical. Summed up:
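GST-tagged cytoplasmic domains (FGFR2 aa 399-821; FGFR4 aa 460-802) were preincubated 10 min at 23 °C with compound (top 1 µM, threefold dilutions). Then 28 nM fluorescein-poly GT and 28 µM ATP were added for 30 min at 23 °C in HEPES pH 7.5 buffer. Tb-PY20 TR-FRET 520/495 ratio gave % inhibition versus DMSO and no-enzyme controls.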
Background: In TR-FRET formats the signal depends on donor and acceptor labels being close together.

In experiment [1] the test system is RT112 cells (bladder cancer cells). Nature of the experiment: Inhibition of proliferation activity of RT112 cells (CellTiter-Glo). The experiment is classed as cell-based. Particulars: Homo sapiens, RT-112; RT112 cells, 72 hours, CTG; read-out: IC50 (nM) RT112. As to the method:
The present experiment used CellTiter-Glo® Luminescent Cell Viability Assay (Promega: G7573) kit, which was a homogeneous cell viability detection method and determined the cell viability of cultured cells by quantifying ATP. • ① RT112 cells were cultured in MEM complete medium (Gibco: 51200038) (10% FBS (Gibco: 10091-148)+1% Pen Strep (Gibco: 15140122)+1% NEAA (Gibco: 11140050)) under the condition of 37°C and 5% CO2. • (2) The cells in logarithmic growth phase were harvested and counted using a […]. The trypan blue exclusion method was used to detect cell viability to ensure the cell viability was above 90%. • ③ The cell density was adjusted using MEM complete medium, and then, the cells were seeded into a 96-well cell culture plate at 90 µL/well with a total of 3000 cells. • ④ The 96-well plate with the cells was placed under the condition of 37°C and 5% CO2 to be cultured for 24 hours. • ⑤ 24 hours later, a 10-fold drug solution was prepared starting from a maximum drug concentration of 10 µM and 4-fold serially diluted into10 concentrations. Then, 10 µL of each of the serially diluted compounds was transferred to the corresponding experimental wells of a 96-well cell plate, with two replicates for each drug concentration. • ⑥ The 96-well plate with the cells that had been treated with the drugs was placed under the condition of 37°C and 5% CO2 to be further cultured for 72 hours, and then analyzed by CTG. • ⑦ The CTG reagent was melted and the cell plate was equilibrated to room temperature for 30 minutes. • ⑧ 50 µL of the CTG solution was added to each well. • ⑨ The cell plate was shaken on an orbital shaker for 5 minutes to lyse the cells. • ⑩ The cell plate was placed at room temperature for 20 minutes to stabilize the luminescence signal. The luminescence values were read to collect the data. • ⑪ The data were analyzed using XLFit excel plugin version 5.5.0.5, and fitted with non-linear S-curve regression to obtain the dose-response curves and thus calculate the IC50 values. Y = Bottom + (Top-Bottom)/((1+(IC50/X))^(∧) HillSlope [formula]
"Top" refers to the maximum response, "Bottom" refers to the minimum response, and "HillSlope" refers to the slope of the curve.
"Max" represents the average value of the cell+DMSO control, and "Min" represents the average value of the medium control+DMSO.
A general note: In ATP-based viability assays light output follows the ATP content of the culture.

[2] abbreviates: FGFR3 kinase, TR-FRET, read-out: IC50 (nM) FGFR3.
Setting [3] is: FGFR4 kinase, TR-FRET, read-out: IC50 (nM) FGFR4.

Where two headings read alike, the source gives them in different places. Bounds are passed on as bounds.

T1 sequence (P22607 436-806): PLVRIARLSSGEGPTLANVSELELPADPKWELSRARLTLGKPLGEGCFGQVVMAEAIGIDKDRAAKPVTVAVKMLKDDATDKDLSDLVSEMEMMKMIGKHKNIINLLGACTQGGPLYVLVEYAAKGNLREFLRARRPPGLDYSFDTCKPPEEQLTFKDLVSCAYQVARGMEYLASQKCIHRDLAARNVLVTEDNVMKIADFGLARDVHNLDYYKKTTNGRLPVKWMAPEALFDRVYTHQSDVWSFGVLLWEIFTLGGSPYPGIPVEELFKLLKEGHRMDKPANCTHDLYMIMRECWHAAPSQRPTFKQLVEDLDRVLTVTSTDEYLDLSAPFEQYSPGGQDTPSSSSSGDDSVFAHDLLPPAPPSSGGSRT
T2 sequence (P22455 460-802): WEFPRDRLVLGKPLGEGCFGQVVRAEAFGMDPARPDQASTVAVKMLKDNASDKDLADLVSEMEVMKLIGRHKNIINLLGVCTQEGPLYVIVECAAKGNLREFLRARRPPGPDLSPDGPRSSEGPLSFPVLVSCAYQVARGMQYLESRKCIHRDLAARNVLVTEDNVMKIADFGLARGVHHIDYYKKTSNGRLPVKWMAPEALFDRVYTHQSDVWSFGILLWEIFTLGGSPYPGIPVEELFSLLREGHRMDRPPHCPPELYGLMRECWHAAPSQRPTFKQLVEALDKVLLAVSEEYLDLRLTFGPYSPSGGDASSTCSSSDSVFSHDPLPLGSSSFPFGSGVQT

As a reminder, the IC50 is the concentration that inhibits the measured activity by half. Consider `COCC(=O)N1CC(n2cc(-c3n[nH]c4ccc(OC(C)c5cccc6nccnc56)cc34)cn2)C1` (stereo not drawn) [Example 188, 2-methoxy-1-(3-(4-(5-(1-(quinoxalin-5-yl)ethoxy)-1H-indazol-3-yl)-1H-pyrazol-1-yl)azetidin-1-yl)ethan-1-one], for which the IC50 on FGFR3 (setting [2]) was below 1 nM; at FGFR4 (setting [3]), 10 to 100 nM; in experiment [1] it was 10.7 nM. Also, the “Selectivity (X) FGFR1/FGFR3” value at FGFR3 is recorded as “B (B represents 20 ≤ multiple X<50)”. In addition, the “Selectivity (X) FGFR2/FGFR3” value on FGFR3 was “A (A represents 1 ≤ multiple X<20)”. Moreover, the “Selectivity (X) FGFR4/FGFR3” value at FGFR3 was “B (B represents 20 ≤ multiple X<50)”.

Regarding `CC(Oc1ccc2[nH]nc(-c3cnn(C4CN(C(=O)C(C)(C)O)C4)c3)c2c1)c1cccc2nccnc12` (stereo not drawn) [Example 190, 2-hydroxy-2-methyl-1-(3-(4-(5-(1-(quinoxalin-5-yl)ethoxy)-1H-indazol-3-yl)-1H-pyrazol-1-yl)azetidin-1-yl)propan-1-one], at FGFR3 (setting [2]), the IC50 is below 1 nM. Besides, at FGFR3, the “Selectivity (X) FGFR1/FGFR3” value is “B (B represents 20 ≤ multiple X<50)”, the “Selectivity (X) FGFR2/FGFR3” value is “A (A represents 1 ≤ multiple X<20)” and the “Selectivity (X) FGFR4/FGFR3” value was “B (B represents 20 ≤ multiple X<50)”. In addition, on FGFR4 (setting [3]), the half-inhibitory concentration (IC50) is 10 to 100 nM. In addition, the IC50 in experiment [1] is 18.6 nM.

With `CC(=O)N1CC(n2cc(-c3n[nH]c4ccc(OC(C)c5cccc6nccnc56)cc34)cn2)C1` (stereo not drawn) [Example 218, 1-(3-(4-(5-(1-(quinoxalin-5-yl)ethoxy)-1H-indazol-3-yl)-1H-pyrazol-1-yl)azetidin-1-yl)ethan-1-one], the values for the IC50 (at FGFR3 (setting [2]); at FGFR4 (setting [3]); in experiment [1]) were below 1 nM, 10 to 100 nM and 16.7 nM, respectively. For the same molecule, the “Selectivity (X) FGFR1/FGFR3” value at FGFR3 is reported as “B (B represents 20 ≤ multiple X<50)”. Further, the “Selectivity (X) FGFR2/FGFR3” value on FGFR3 was “A (A represents 1 ≤ multiple X<20)”. In addition, the “Selectivity (X) FGFR4/FGFR3” value at FGFR3 is recorded as “B (B represents 20 ≤ multiple X<50)”.

On to `CC(Oc1ccc2[nH]nc(-c3cnn(C)c3)c2c1)c1nc(C(F)F)cc2nccnc12` (stereo not drawn) [Example 236, 7-(difluoromethyl)-5-(1-((3-(1-methyl-1H-pyrazol-4-yl)-1H-indazol-5-yl)oxy)ethyl)pyridino[3,4-b]pyrazine], for which the half-inhibitory concentration (IC50) at FGFR3 (setting [2]) was below 1 nM. Further, at FGFR3, the “Selectivity (X) FGFR1/FGFR3” value was “A (A represents 1 ≤ multiple X<20)”, the “Selectivity (X) FGFR2/FGFR3” value is “A (A represents 1 ≤ multiple X<20)” and the “Selectivity (X) FGFR4/FGFR3” value is on record as “C (C represents 50 ≤ multiple X<100)”. Also, the IC50 at FGFR4 (setting [3]) fell in the range of 10 to 100 nM. For the same molecule, the half-inhibitory concentration (IC50) in experiment [1] was 15.5 nM.

For `[2H]C([2H])([2H])c1cc2nccnc2c(C(C)Oc2ccc3[nH]nc(-c4cnn(C)c4)c3c2)n1` (stereo not drawn) [Example 241], at FGFR3, the IC50 was below 1 nM, the “Selectivity (X) FGFR1/FGFR3” value was “B (B represents 20 ≤ multiple X<50)”, the “Selectivity (X) FGFR2/FGFR3” value is “A (A represents 1 ≤ multiple X<20)” and the “Selectivity (X) FGFR4/FGFR3” value is reported as “A (A represents 1 ≤ multiple X<20)”. The IC50 against FGFR4 was in the range of 1 to 10 nM. The IC50 in experiment [1] is 13.5 nM.
